According to ChEMBL document CHEMBL5154867, “Baylis-Hillman Adducts as a Versatile Module for Constructing Fluorogenic Release System” (J Med Chem, 2022):
Each block holds one compound with its values, some of them ahead of it. The source made the active and inactive calls. The calls are words filed in the database; no cut-off is given here.

Experiments:
[1] = Prodrug activation in PBS at pH 7.4 assessed as change in fluorescence signal at 10 uM incubated for 60 mins in presence of 1 mM cysteine by fluorescence based assay; settings: buffer, pH 7.4, 1 h
[2] = Stability of compound in mouse plasma assessed as prodrug remaining at 100 uM measured upto 12 hrs by HPLC analysis; assay type: ADME, cell-free
[3] = Prodrug activation in zebrafish assessed as green fluorescence signal at 20 uM incubated for 20 mins by fluorescence microscopy; parameters: species or system Danio rerio
[4] = Prodrug activation in PBS at pH 7.4 assessed as decrease in compound at 10 uM incubated upto 60 mins in presence of 1 mM GSH by LC-MS analysis; settings: buffer, pH 7.4, 1 h
BV-2 [5] = assay: Neuroprotective activity against OGD-induced mouse BV2 cells assessed as increase in cell viability at 2 to 4 uM incubated for 4 hrs followed by reoxygenation by MTT assay; assay type: functional, cell-based; settings: dose 2-4 µM
[6] = Prodrug activation in PBS at pH 7.4 assessed as GSH bis-adduct at 10 uM incubated upto 60 mins in presence of 1 mM GSH by LC-MS analysis; settings: buffer, pH 7.4, 1 h
[7] = Prodrug activation in PBS at pH 7.4 assessed as GSH-induced NO release by measuring increase in fluorescence at 10 uM in presence of 1 mM GSH; settings: buffer, pH 7.4, 10 µM
[8] = Prodrug activation in PBS at pH 7.4 assessed as GSH-induced NO release by measuring increase in fluorescence at 10 uM incubated for 60 mins in presence of 1 mM GSH by fluorescence based assay; settings: buffer, pH 7.4, 1 h
Astrocyte = assay: Cytotoxicity against astrocyte cells assessed as cell survival upto 2 uM incubated for 24 hrs by MTT assay; assay type: toxicity, cell-based
[9] = Prodrug activation in PBS at pH 7.4 assessed as change in fluorescence signal at 10 uM incubated for 60 mins in presence of 1 mM homocysteine by fluorescence based assay; settings: buffer, pH 7.4, 1 h
[10] = Prodrug activation in PBS assessed as increase in GSH-activated NO release at 10 uM in presence of 1 mM GSH measured for 40 mins by Griess assay; settings: buffer
[11] = Prodrug activation in PBS at pH 6.5 to 9.0 at 10 uM incubated for 60 mins in presence of 1 mM GSH by fluorescence based assay; settings: buffer, pH 6.5, 1 h
[12] = Drug uptake in mouse brain assessed as penetration depth at 1 mM treated for 2 hrs by two-photon based fluorescence microscopy; assay type: ADME, tissue-based; settings: in vivo, 1000 µM
[13] = Prodrug activation in human HepG2 cells assessed as bis-thiol adduct by measuring green fluorescence at 20 uM treated for 15 mins by fluorescence microscopy; assay type: cell-based; settings: hepg2, 0.25 h
[14] = Drug uptake in zebrafish embryo assessed as penetration depth at 20 uM treated for 20 mins by two-photon based fluorescence microscopy; assay type: ADME, Danio rerio; settings: in vivo
[15] = Prodrug activation in PBS assessed as amount of GSH-activated NO release at 17 uM in presence of 1 mM GSH by Griess assay; settings: buffer
[16] = Prodrug activation in zebrafish assessed as NO release by measuring red fluorescence signal at 20 uM incubated for 20 mins by dRB-OPD staining based fluorescence microscopy; parameters: species or system Danio rerio
BV-2 [17] = assay: Cytotoxicity against mouse BV-2 cells assessed as cell survival upto 2 uM incubated for 24 hrs by MTT assay; assay type: toxicity, cell-based; settings: bv-2, 24 h
BV-2 [18] = assay: Neuroprotective activity against OGD-induced mouse BV2 cells assessed as morphological change at 1 to 4 uM incubated for 4 hrs by fluorescence microscopy; assay type: functional, cell-based; settings: dose 1-4 µM
BV-2 [19] = assay: Cytotoxicity against mouse BV2 cells assessed as cell survival at less than 4 uM incubated for 24 hrs by MTT assay; assay type: toxicity, cell-based; settings: bv-2, 24 h
[20] = Prodrug activation in human HepG2 cells assessed as NO release by measuring red fluorescence at 20 uM treated for 15 mins by dRB-OPD staining based fluorescence microscopy; assay type: cell-based; settings: hepg2, 0.25 h
[21] = Prodrug activation in human HepG2 cells assessed as retention time of CPT by LC-MS analysis; assay type: cell-based
[22] = Prodrug activation in human HepG2 cells assessed as GSH bis-adduct formation by measuring green fluorescence at 10 uM incubated upto 30 mins by inverted fluorescence microscopy; assay type: cell-based; settings: hepg2, 0.5 h
[23] = Prodrug activation in human HepG2 cells assessed as retention time of GSH bis-adduct formation at 10 uM treated for 1 hr in presence of 1 mM GSH by LC-MS analysis; assay type: cell-based; settings: hepg2, 1 h
[24] = Prodrug activation in PBS at pH 7.4 assessed as GSH mono-adduct formation at 10 uM in presence of 1 mM GSH measured after 5 mins by LC-MS analysis; settings: buffer, pH 7.4, 5 min
[25] = Prodrug activation in PBS at pH 7.4 assessed as retention time of GSH mono-adduct formation at 10 uM in presence of 1 mM GSH by LC-MS analysis; settings: buffer, pH 7.4, 10 µM
[26] = Prodrug activation in PBS at pH 7.4 assessed as CPT release at 10 uM in presence of 1 mM GSH measured after 5 mins by LC-MS analysis; settings: buffer, pH 7.4, 5 min
[27] = Prodrug activation in PBS at pH 7.4 assessed as CPT release at 10 uM measured within 30 mins by fluorescence microscopy; settings: buffer, pH 7.4, 0.5 h
[28] = Prodrug activation in human HepG2 cells assessed as CPT release by measuring blue fluorescence at 10 uM incubated upto 30 mins by inverted fluorescence microscopy; assay type: cell-based; settings: hepg2, 0.5 h
[29] = Prodrug activation in PBS at pH 7.4 assessed as GSH bis-adduct formation at 10 uM in presence of 1 mM GSH measured 10 mins by LC-MS analysis; settings: buffer, pH 7.4, 10 min
[30] = Prodrug activation in PBS at pH 7.4 assessed as rate of CPT release at 10 uM measured within 10 mins by fluorescence microscopy; settings: buffer, pH 7.4, 10 min
[31] = Prodrug activation in PBS at pH 7.4 assessed as retention time of CPT at 10 uM in presence of 1 mM GSH by LC-MS analysis; settings: buffer, pH 7.4, 10 µM
[32] = Prodrug activation in human HepG2 cells assessed as retention time of prodrug by LC-MS analysis; assay type: cell-based
[33] = Prodrug activation in PBS at pH 7.4 assessed as retention time of GSH bis-adduct formation at 10 uM in presence of 1 mM GSH by LC-MS analysis; settings: buffer, pH 7.4, 10 µM
[34] = Prodrug activation in PBS at pH 7.4 assessed as retention time of prodrug at 10 uM in presence of 1 mM GSH by LC-MS analysis; settings: buffer, pH 7.4, 10 µM

Activity [1]: Active
Stability [2]: > 60%
Drug metabolism [3]: Metabolite_Detected
Activity [4]: Active
Activity [6]: Active
Activity [7]: Active
Activity [8]: Active
Activity [9]: Active
Activity [10]: Active
Activity [11]: Active
Drug metabolism [12]: Metabolite_Detected
Drug metabolism [13]: Metabolite_Detected
Drug metabolism [14]: Metabolite_Detected
Activity [15]: 85%
Drug metabolism [16]: Metabolite_Detected
Drug metabolism [20]: Metabolite_Detected
SMILES: C=C(CO/N=[N+](/[O-])N1CCCC1)C(=O)c1ccc2cc(N(C)C)ccc2c1
Activity (BV-2 [5]): Active
Activity (Astrocyte): Non-Toxic
Activity (BV-2 [17]): Non-Toxic
Activity (BV-2 [18]): Active
Activity (BV-2 [19]): Active

Stability [2]: > 60%
Retention_time [21]: 10.2 min
Drug metabolism [22]: Metabolite_Detected
Retention_time [23]: 5.1 min
Activity [24]: Active
Retention_time [25]: 13.5 min
Activity [26]: Active
Activity [27]: Active
Drug metabolism [28]: Metabolite_Detected
Activity [29]: Active
Activity [30]: > 90%
Retention_time [31]: 10.2 min
Retention_time [32]: 28.9 min
Retention_time [33]: 5.1 min
Retention_time [34]: 28.9 min
SMILES: C=C(COC(=O)O[C@]1(CC)C(=O)OCc2c1cc1n(c2=O)Cc2cc3ccccc3nc2-1)C(=O)c1ccc2cc(N(C)C)ccc2c1
